Data as given in patent US20220381779A1, “METHODS FOR THE DIAGNOSIS OF BURULI ULCER” (INSERM (INSTITUT NATIONAL DE LA SANTÉ ET DE LA RECHERCHE …, priority 2019, published 2022).

System: CD4+ T cells
Assay: Neutralizing activity assay: cytokine production by PMA/ionomycin-stimulated CD4+ T cells in contact with mycolactone
Format: cell-based, C57Bl/6 mice
Settings: mycolactone 4 ng/mL, 6 h, compared to positive control (T cells only stimulated)
Protocol: FIG. 2: Neutralization of mycolactone by cutaneous immunoglobulin from FVB/N mice infected with M. ulcerans. CD4+ lymphocytes were stimulated with PMA/ionomycin. Mycolactone was used at a concentration of 4 ng/mL. Immunoglobulins purified from the skin of A) FVB/N mice or B) C57Bl/6 mice infected with M. ulcerans were used at a ratio of 10 immunoglobulin molecules per molecule of mycolactone. Left panel: IL-2 quantification, Right panel: IFNγ quantification. The data shown correspond to one experiment performed in triplicate (mean±SD).
CD4+ T cells were isolated from the spleens of C57Bl/6 mice by magnetic sorting (MACS technology kit 130-104-454), according to the manufacturer's instructions (Miltenyi Biotec). The purity of CD4+ T-cell preparations was determined by flow cytometry, with PE-conjugated anti-CD4 monoclonal antibody (eBioscience) and FITC-conjugated anti-CD3E monoclonal antibody (eBioscience). […] IL-2 and IFN-γ were quantified by ELISA (eBioscience), according to the manufacturer's instructions (Mouse IL-2 Ready-SET-Go: 88-7024 and Mouse IFN-γ Ready-SET-Go: 88-7314 respectively).
In this context, we assessed whether these antibodies could not only recognized but also neutralized mycolactone, by evaluating cytokines production by T lymphocytes as an indicator of the immunomodulatory property of mycolactone. […]

## CC(=C\C=C\C(C)=C\[C@H](O)[C@@H](O)C[C@H](C)O)/C=C(C)/C=C/C(=O)O[C@H]1CCCC(=O)O[C@@H]([C@@H](C)C/C(C)=C/[C@@H](C)[C@H](O)C[C@@H](C)O)C/C=C(\C)C[C@@H]1C [mycolactone, [(6S,7S,9E,12R)-12-[(E,2S,6R,7R,9R)-7,9-dihydroxy-4,6-dimethyldec-4-en-2-yl]-7,9-dimethyl-2-oxo-1-oxacyclododec-9-en-6-yl] (2E,4E,6E,8E,10E,12S,13S,15S)-12,13,15-trihydroxy-4,6,10-trimethylhexadeca-2,4,6,8,10-pentaenoate]
  IFNγ production by T cells: greatly decreased
  IL-2 production by T cells: greatly decreased
